# Measurements: US11058673B2, “Dosage regimen of MDM2 inhibitor for treating cancers” (DAIICHI SANKYO COMPANY, LIMITED, priority 2015, dated 2021)
# Like-named read-outs stand apart in the source and are kept apart here.
# How the values were obtained:
# Non-Liposarcoma = assay: Phase 1 clinical study: progression free survival, non-liposarcoma subjects; format: in vivo, human; conditions: Non-Liposarcoma (N = 14)
# Experimental: (§1) • 1. Has a histologically or cytologically documented advanced solid tumor or lymphoma that has relapsed from or is refractory to standard treatment, or for which no standard treatment is available. • 2. Man or woman≥18 years old. • 3. Has an Eastern Cooperative Oncology Group (ECOG) performance status 0-1. • 4. Has adequate bone marrow function, adequate renal function, adequate hepatic function, and adequate blood clotting function.
# (§2) Tumor assessment Tumor assessment was performed at baseline, within every 2 cycles while the subject remained on study for the first 9 cycles and then every 3 cycles thereafter (start of Cycles 3, 5, 7, and 9, then Cycles 12, 15, etc.).
# (§3) Tumor Response Response assessment was performed according to the Schedule of Events or if disease progression was suspected. Radiographic assessment included computerized tomography (CT) of all affected sites. In addition, subjects with lymphoma underwent a (^18F) fluorodeoxyglucose-positron emission tomography FDG-PET scan. Tumor responses were assessed by the physicians according to RECIST 1.1 criteria for subjects with solid tumors and revised IWG criteria for subjects with lymphoma. Descriptive statistics for the greatest percent change in the sum of longest dimensions (SLD) of measurable tumors were provided. A waterfall plot of the greatest percent change from screening in the SLD for each subject was presented for subjects with advanced solid malignancies and lymphomas. In addition, descriptive statistics for FDG-PET scans were provided for lymphoma subjects according to revised IWG criteria.
# [1] = test system: advanced solid tumor or lymphoma; assay: Phase 1 clinical study: tumor response (RECIST v1.1) and progression free survival, overall population; format: in vivo, human
# Experimental: as §1, §2, §3
# [2] = format: in vivo, human; conditions: for maximum tolerated dose (MTD): oral
# Experimental: (§4) Dosage regimen Compound 2 was administered as an oral capsule comprising a pharmaceutically acceptable carrier (diluting agent, plasticizer, disintegrator and lubricant). Compound 2 was administered to the subjects once daily on Days 1 to 21 of a 28-day cycle (QD21/28). An alternative drug administration schedule was considered after establishing the maximum tolerated dose (MTD) of Compound 2 in solid tumor and/or lymphoma subjects using the above schedule, and upon review of the human safety. Subjects were administered Compound 2 in fasting conditions by avoiding food for 2 hours before and 1 hour after drug administration. Dose-escalation of Compound 2 to determine the MTD was guided by the modified continuous reassessment method (mCRM) using a Bayesian logistic regression model (BLRM) following escalation with overdose control (EWOC) principle. Dose escalation began in subjects with advanced solid tumors or lymphomas with a starting dose of Compound 2 at 15 mg/day based on the Highest Non-Severely Toxic Dose (HNSTD) of 3 mg/kg in dogs.
# Dose Limiting Toxicity Definition A DLT was defined as any treatment-emergent adverse event (TEAE) not attributable to disease or disease-related processes that occurred during the observation period (Cycle 1) in each dose-level cohort and was grade 3 or higher according to NCI CTCAE, version 4. Subjects who were unable to complete at least 75% of the prescribed doses (i.e., 16 days) of Compound 2 in the first 21 days as a result of nondisease-related≥grade 2 adverse event (AE) were considered to have a DLT.
# Treatment Arms In this open-label, single-arm, dose escalation study, each subject received Compound 2 orally once daily on Days 1 to 21 of a 28-day cycle.
# Safety Parameters The safety profile was based on AEs, physical examination findings, vital sign measurements, clinical laboratory measurements, and ECG recordings. All subjects receiving at least 1 dose of Compound 2 were included in the safety analyses.
# Liposarcoma = assay: Phase 1 clinical study: progression free survival, liposarcoma subjects; format: in vivo, human; conditions: Liposarcoma (N = 13)
# Experimental: as §1, §2, §3
# [3] = Highest Non-Severely Toxic Dose in dogs; format: in vivo
# Experimental: as §4
# [4] = Overall (N = 27), Kaplan-Meier estimate
structure (smiles),measurement,setting,value
"CC1(C)CCC2(CC1)N[C@@H](C(=O)N[C@@H]1CC[C@@H](C(N)=O)OC1)[C@H](c1ccnc(Cl)c1F)[C@]21C(=O)Nc2cc(Cl)ccc21.Cc1ccc(S(=O)(=O)O)cc1 [Compound 2, (3′R,4′S,5′R)—N-[(3R,6S)-6-carbamoyltetrahydro-2H-pyran-3-yl]-6″-chloro-4′-(2-chloro-3-fluoropyridin-4-yl)-4,4-dimethyl-2″-oxo-1″,2″-dihydrodispiro[cyclohexane-1,2′-pyrrolidine-3′,3″-indole]-5′-carboxamide mono(4-methylbenzenesulfonate) monohydrate]",Subjects without Events (Censored) (%),Non-Liposarcoma,(35.7) %
same,"Progression-Free Survival, Median",Non-Liposarcoma; Kaplan-Meier estimate,4.04 months
same,Rate (%) of Being Alive Without Progresion at Least 3 months,Non-Liposarcoma; Kaplan-Meier estimate,58.4%
same,Rate (%) of Being Alive Without Progresion at Least 6 months,Non-Liposarcoma; Kaplan-Meier estimate,23.4%
same,Rate (%) of Being Alive Without Progresion at Least 9 months,Non-Liposarcoma; Kaplan-Meier estimate,11.7%
same,Rate (%) of Being Alive Without Progresion at Least 12 months,Non-Liposarcoma; Kaplan-Meier estimate,11.7%
same,Subjects with Events (%),Non-Liposarcoma; PFS events,(64.3) %
same,Subjects without Events (Censored) (%),[1]; Overall (N = 27),(55.6) %
same,"Progression-Free Survival, Median",[1]; [4],5.72 months
same,Rate (%) of Being Alive Without Progresion at Least 3 months,[1]; [4],74.5%
same,Rate (%) of Being Alive Without Progresion at Least 6 months,[1]; [4],47.4%
same,Rate (%) of Being Alive Without Progresion at Least 9 months,[1]; [4],29.7%
same,Rate (%) of Being Alive Without Progresion at Least 12 months,[1]; [4],29.7%
same,Subjects with Events (%),"[1]; PFS events, Overall (N = 27)",(44.4) %
same,subjects with stable disease (SD) as the best tumor response,"[1]; RECIST v1.1, out of 23 evaluable subjects",21 subjects
same,subjects with >10% tumor shrinkage,[1]; of 23 evaluable subjects,3 subjects
same,TEAE anemia,"[2]; human, in vivo",38.2%
same,TEAE constipation,"[2]; human, in vivo",23.5
same,TEAE decreased appetite,"[2]; human, in vivo",50.0%
same,TEAE diarrhea,"[2]; human, in vivo",35.3%
same,TEAE dysgeusia,"[2]; human, in vivo",20.6%
same,TEAE dyspnoea,"[2]; human, in vivo",26.5%
same,TEAE fatigue,"[2]; human, in vivo",52.9%
same,TEAE grade 3 or higher in severity,"[2]; human, in vivo",55.9%
same,TEAE hyperglycemia,"[2]; human, in vivo",29.4%
same,TEAE hypoalbuminemia,"[2]; human, in vivo",32.4%
same,TEAE nausea,"[2]; human, in vivo",64.7%
same,TEAE neutropenia,"[2]; human, in vivo",17.6%
same,TEAE peripheral edema,"[2]; human, in vivo",17.6%
same,TEAE thrombocytopenia,"[2]; human, in vivo",32.4%
same,TEAE vomiting,"[2]; human, in vivo",35.3%
same,Treatment emergent adverse events (TEAE) of any grade at any treatment cycle irrespective of causality,"[2]; human, in vivo",97.1%
same,most common drug-related TEAEs,"[2]; human, in vivo","hematological (thrombocytopenia, anemia, neutropenia), gastrointestinal (nausea, vomiting and diarrhea), and fatigue"
same,total subjects who experienced DLTs,"[2]; human, in vivo",6 subjects
same,maximum tolerated dose (MTD),[2]; QD 21/28 schedule,120 mg
same,maximum tolerated dose (MTD),[2]; QD 28/28 schedule,90 mg
same,dose tolerated,[2]; patients with hematological malignancies,160 mg
same,Subjects without Events (Censored) (%),Liposarcoma,(76.9) %
same,Rate (%) of Being Alive Without Progresion at Least 3 months,Liposarcoma; Kaplan-Meier estimate,91.7%
same,Rate (%) of Being Alive Without Progresion at Least 6 months,Liposarcoma; Kaplan-Meier estimate,76.4%
same,Rate (%) of Being Alive Without Progresion at Least 9 months,Liposarcoma; Kaplan-Meier estimate,57.3%
same,Rate (%) of Being Alive Without Progresion at Least 12 months,Liposarcoma; Kaplan-Meier estimate,57.3%
same,Subjects with Events (%),Liposarcoma; PFS events,(23.1) %
same,Highest Non-Severely Toxic Dose (HNSTD),[3],3 mg/kg
